“Also recorded” adds a separate entry of the source. Marks after values point to notes of the source that are not given here.
Columns and labels:
[1] = test system: perfused heart in situ preparations; test: Perfused heart in situ preparation, phrenic nerve discharge; design: species or system rat; details: fentanyl 4 nM, then CX546 50 μM in perfusate
[2] = test system: inspiratory neuron within the preBötzinger complex; test: Whole-cell recording from inspiratory neuron within the preBötzinger complex, medullary slice; type: cell-based, rat
[3] = test system: medullary slice preparations (preBötC, XII motoneuron nucleus); test: Medullary slice preparation, respiratory rhythm (XII nerve root discharge); design: species or system rat; details: for DAMGO-induced suppression of inspiratory discharge amplitude, focal injection into XII motorneuron nucleus / DAMGO-induced suppression of respiratory rhythm, focal injection into preBötC: newborn (P2) slice, CX614 200 μM, Compound A 1 mM, DAMGO in bath
Method: The medullary slice preparation is a derivative of the brainstem-spinal cord preparation. See, Smith J. C., et al. (1991). It contains the minimum component of neuronal populations within the ventrolateral medulla necessary for generating a respiratory rhythm, the preBötC. The medullary slice also contains a significant portion of the rostral ventral respiratory group, hypoglossal nucleus and XII cranial nerve rootlets from which inspiratory motor discharge is recorded.
Brainstem-spinal cords isolated from newborn rats were pinned down, ventral surface upward, on a paraffin-coated block. See, Funk, G. D., et al. (1993); Smith, J. C., et al. (1991). The block was mounted in the vise of a vibratome bath (Leica, VT1000S). […] A single transverse slice containing the preBötC and more caudal reticular formation regions was then cut (500-600 μm thick), transferred to a recording chamber and pinned down onto a Sylgard elastomer. The medullary slice was continuously perfused with a bathing solution identical to that used for the brainstem-spinal cord preparation with the exception that in some cases the K^+ concentration was increased to 9 mM which facilitates long-term generation of stable rhythm (>5 hours) by these preparations. See, Funk, G. D., et al. (1993); Smith, J. C., et al. (1991). Recordings were made from the hypoglossal (XII) cranial nerve roots, cervical (C4) ventral roots and neuronal population discharge within the ventrolateral medulla with suction electrodes placed over the nerve roots or on the surface of the rhythmic slice preparations.

rats = test: Thermal nociception, hind paw withdrawal test; type: in vivo, rat
[4] = test system: brainstem-spinal cord preparations; test: Brainstem-spinal cord preparation, rhythmic respiratory discharge (C4 ventral root); design: species or system rat
Excerpt: The fetal and neonatal brainstem-spinal cord preparations have been well-characterized and shown to generate complex, coordinated patterns of respiratory-related activity. See, Smith J. C. et al. (1990) and Greer, J. J. et al. (1992). Recordings from cervical ventral and hypoglossal cranial roots provide information regarding the pharmacology of respiratory rhythm generating networks and the pathways transmitting that respiratory drive to key output components of the respiratory motor system, without the confounding influence of peripheral chemoreceptors and supramedullary structures.
Brainstem-spinal cord preparations were carried out as follows: Sprague-Dawley (SD) rat fetuses were delivered from timed-pregnant dams anesthetized with halothane (2% delivered in 95% O2 and 5% CO2) and maintained at 37° C. by radiant heat, following procedures approved by the Animal Welfare Committee at the University of Alberta. The timing of pregnancies was determined by vaginal lavage of the dam. Newborn rat pups were anesthetized with metofane. Newborn pups and embryos were then decerebrated and the brainstem-spinal cord was dissected following procedures similar to those established for perinatal rats. See, Smith, J. C., et al. (1990) J. Neurophysiol. 64:1149-1169; Greer, J. J., et al. (1992) J. Neurophysiol. 67:996-999. The neuraxis was continuously perfused at 27±1° C. (perfusion rate 5 ml/minute, chamber volume of 1.5 ml) with modified Kreb's solution that contained (mM): 128 NaCl, 3.0 KCl, 1.5 CaCl2, 1.0 MgSO4, 24 NaHCO3, 0.5 NaH2PO4, and 30 D-glucose equilibrated with 95% O2-5% CO2 (pH=7.4).

XII motorneuron = type: cell-based, rat; details: compound in bathing medium, TTX present
[5] = listed as 4-(BENZOFURAZAN-5-YLCARBONYL)MORPHOLINE

O=C(c1ccc2c(c1)OCCO2)N1CCCCC1 [CX546, 1-(1,4-benzodioxan-6-ylcarbonyl)piperidine]
fentanyl-induced depression of respiratory frequency and phrenic burst amplitude [1]: counters
frequency of the rhythm and inspiratory drive potential ([2]; current clamp, low extracellular K+): increased
amplitude of inward inspiratory drive current ([2]; voltage clamp, same neuron): marked increase
baseline frequency and amplitude of breathing (Sprague-Dawley rat; CX546 16 mg/kg i.p. on its own, newborn P0-P2 and adult rats): not significantly altered
behaviour or arousal state (spontaneous movement, agitation, sedation) (Sprague-Dawley rat; rat, in vivo, ip, 16 mg/kg): without any obvious effect
time to restoration of frequency and amplitude to 3 mM [K+] bath levels ([3]; CX546 400 μM bath-applied after rhythm ceased in 3 mM [K+]): ≤ 2 min
effect on rhythmic respiratory activity after cessation ([3]; CX546 400 μM bath-applied after rhythm ceased in 3 mM [K+], P2 slice): rapid and potent stimulation of respiratory networks; also recorded: restored rhythmic activity of XII motoneurons
control values of respiratory frequency or amplitude of motor nerve discharge ([3]; CX546 on its own, 9 mM [K+]o): did not significantly alter
DAMGO-induced depression of respiratory frequency and amplitude ([3]; P1-P2 slice, 9 mM [K+]o, DAMGO 800 nM, then CX546 200 μM bath-applied): alleviated; also recorded: partially reversed
persistence of respiratory rhythm in presence of compound ([3]; P2 slice, 3 mM [K+]o, CX546 in bath): > 3 h
Latency (s), hind paw withdrawal (rats; Adult (2-3 months), drug alone i.p. (CX546 16 mg/kg pre-administration of fentanyl; fentanyl 130 μg/kg)): 5.3 ± 2.1 s
Latency (s), hind paw withdrawal (rats; Adult (2-3 months), post-administration of fentanyl 130 μg/kg, CX546 16 mg/kg or naloxone 1 mg/kg i.p.): >20* s
sensitivity of thermal nociception tests in the control condition (rats; CX546 16 mg/kg on its own): did not change the sensitivity
Latency (s), hind paw withdrawal (rats; Newborn (P1-P2), drug alone i.p. (CX546 16 mg/kg pre-administration of fentanyl; fentanyl 60 μg/kg)): 4.3 ± 3.2 s
Latency (s), hind paw withdrawal (rats; Newborn (P1-P2), post-administration of fentanyl 60 μg/kg, CX546 16 mg/kg or naloxone 1 mg/kg i.p.): >20* s
fentanyl-induced analgesia after subsequent administration of the drug (rats; newborn and adult rats, CX546 16 mg/kg or naloxone 1 mg/kg i.p.): persisted
frequency of rhythmic respiratory discharge ([4]; E20 preparation, CX546 50-100 μM in bathing medium): markedly enhanced
DAMGO-induced depression of respiratory frequency and amplitude ([4]; P1-P2, DAMGO 800 nM, then CX546 200 μM bath-applied): alleviated; also recorded: partially reversed
baseline respiratory frequency ([4]; P3 preparations, bath-applied CX546): no effect on the baseline frequency
respiratory frequency compared to control ([4]; perinatal preparations E18-P0, bath-applied CX546): significant increase in frequency

O=C(c1ccc2nonc2c1)N1CCOCC1 [Compound A, 4-(benzofurazan-5-ylcarbonyl)morpholine]
amplitude and duration of glutamate-induced inward currents (XII motorneuron): not significantly altered
current amplitude in response to glutamate injections ([2]; voltage clamp, TTX present, bath-applied compound): increases
persistence of enhancement of respiratory rhythm (Sprague-Dawley rat; rat, in vivo): at least 1 hour
DAMGO-induced suppression of inspiratory discharge amplitude, focal injection into XII motorneuron nucleus [3]: alleviates some of the amplitude depression
DAMGO-induced suppression of respiratory rhythm, focal injection into preBötC [3]: alleviates the frequency depression
DAMGO-induced suppression of inspiratory discharge amplitude, focal injection into XII motorneuron nucleus [3, 5]: alleviates DAMGO induced suppression of respiratory rhythm
DAMGO-induced suppression of respiratory rhythm, focal injection into preBötC [3, 5]: alleviates DAMGO induced suppression of respiratory rhythm

C[C@@H](NC(=O)[C@@H](N)Cc1ccc(O)cc1)C(=O)NCC(=O)N(C)[C@@H](Cc1ccccc1)C(=O)NCCO [DAMGO, Tyr-D-Ala-Gly-N-methyl-Phe-Gly-ol-enkephalin, reference compound]
respiratory frequency and amplitude ([3]; P1 slice in 9 mM [K+]o, DAMGO 800 nM bath-applied): markedly suppressed
respiratory frequency and amplitude ([4]; P1 preparation, DAMGO 800 nM bath-applied): markedly suppressed

Source: patent US8039468B2, “Method of inhibition of respiratory depression using positive allosteric AMPA receptor modulators” (The Governors of the University of Alberta, priority 2006, dated 2011)
